Read-outs that look alike come from different tables or passages of the source.
Test system: DTH-induced mice
Assay: Dermal DTH response, oxalozone-induced ear swelling in mice (Experiments 5.1-5.4)
Format: in vivo, mouse
Conditions: for inhibition at 3 µmol/kg: Mus musculus
Procedure: Three modes of administration were performed: 1) The Lipid-conjugate in saline was injected intraperitoneally daily beginning day 0 until day 6 (Table 5.1); 2) The Lipid-conjugate in saline was injected subcutaneously into the ear (adjacent to the challenged area) in two injections, either 3 h before application of oxalozone to the ear or 1 h after application of oxalozone to the ear (Table 5.2); 3) EtOH:H2O 1:1 was applied topically to both ears on top of the challenged area daily beginning day 0 until day 6 (Table 5.3); 4) the Lipid-conjugate was applied topically only to the right ear for 5 times 4-6 hours following the challenge (Table 5.4) using either 20 μL of 0.1% DEXPE in 50% EtOH or 20 μl of Dermovat (steroid ointment). In all experiments control Group A (late sensitized only) was treated by topical application of oxalozone to both sides of the ear 24 hours before measuring its swelling. […] Of particular interest are the results presented in Table 5.4, showing that although the topical administration of the drug was unilateral in both cases, the steroid affected both ears, while the topically applied Lipid-conjugate affected only the area to which it was applied, indicative of a lack of systemic infiltration of the Lipid-conjugate in this context.

[1] = Intraperitoneal, fully sensitized, 5 mg (15 μmol/kg)
[2] = Subcutaneous, fully sensitized, 1 mg (3 μmol/kg)
[3] = Unilateral topical, on right ear only, 3 μmol/kg, dermovat

C[C@H]1C[C@H]2[C@@H]3CCC4=CC(=O)C=C[C@]4(C)[C@@]3(F)[C@@H](O)C[C@]2(C)[C@@]1(O)C(=O)CO [betamethasone]
Percent inhibition of ear swelling [1]: 74%
Swelling after sensitization - Swelling of normal ear, Mean ± S.D. (n = 12) [1]: 6.5 ± 1.35 0.1 mm
inhibition at 3 µmol/kg (Topical, fully sensitized, 3 μmol/kg, read-out: Percent inhibition of ear swelling): 60%
inhibition at 3 µmol/kg (Unilateral topical, on right ear only, 3 μmol/kg, dermovat, read-out: Percent inhibition, Left ear): 63%
inhibition at 3 µmol/kg (Unilateral topical, on right ear only, 3 μmol/kg, dermovat, read-out: Percent inhibition, Right ear): 63%
Percent inhibition of ear swelling [2]: 72%
Swelling after sensitization - Swelling of normal ear, Mean ± S.D. (n = 12) [2]: 8.1 ± 1.19 0.1 mm
Swelling after sensitization - Swelling of normal ear, Mean ± S.D. (n = 12) (Topical, fully sensitized, 3 μmol/kg): 10.6 ± 0.84 0.1 mm
Swelling after sensitization - Swelling of normal ear, Left ear, Mean ± S.D. (n = 10) [3]: 7.0 ± 1.0 0.1 mm
Swelling after sensitization - Swelling of normal ear, Right ear, Mean ± S.D. (n = 10) [3]: 7.0 ± 1.0 0.1 mm

From US20150025233A1, “USE OF LIPID CONJUGATES IN THE TREATMENT OF DISEASES” (priority 2001, published 2015)
